Results reported in patent publication US20090124539A1, “Methods of treating infection” (priority 2007, published 2009).
≈ marks a conversion by molar mass, not a printed value. Like-named read-outs stand apart in the source and are kept apart here.

Assays:
Enterococcus faecium = experiment: MIC, broth microdilution (CLSI); type: cell-based
Description: (§1) The stock solutions were allowed to stand in DIW for one hour at room temperature prior to testing to allow time for auto-sterilization.
(§2) The test organisms were originally received from clinical sources, or from the American Type Culture Collection. When received, the organisms were sub-cultured onto an appropriate agar medium. Following incubation, colonies were harvested from these plates and cell suspensions prepared and frozen at −80° C. On the day prior to assay, a frozen vial of each culture was thawed and the contents were streaked for isolation onto either Tryptic Soy Agar (Becton Dickinson, Sparks, Md.) or Tryptic Soy Agar (Enhanced Hemolysis; Becton Dickinson) supplemented with 5% sheep blood for streptococci. The agar plates were incubated overnight at 35° C. Staphylococcus aureus ATCC 29213 and Enterococcus faecalis ATCC 29212 were included as quality control isolates in the assay.
(§3) The test medium for the broth microdilution testing was Mueller Hinton II broth (MHB II; BBL# 212322, Lot # 6024003, Becton Dickinson). The broth was prepared at 1.05× normal weight/volume to offset the 5% volume of the drug solution in the final test plates.
(§4) CLSI guidelines recommend that Mueller-Hinton II broth be adjusted to contain 50 mg/L of Ca^++ ions for proper daptomycin MIC results. Since Mueller-Hinton II broth has already been adjusted by the manufacturer to contain approximately 25 mg/L of Ca^++ ions, an additional 25 mg/L of Ca^++ ions was adjusted with 10 mg/mL of CaCl2.2H2O (Lot# 084K0215; Sigma-Aldrich) added at a rate of 0.1 mL/L of broth, for each desired increment of 1 mg/L. This supplemented Mueller-Hinton II broth was used only in wells containing daptomycin.
(§5) MIC values were determined using a broth microdilution method as recommended by the Clinical and Laboratory Standards Institute (Clinical and Laboratory Standards Institute^a. Methods for Dilution Antimicrobial Susceptibility Tests for Bacteria That Grow Aerobically; Approved Standard-Seventh Edition. Clinical and Laboratory Standards Institute document M7-A7 [ISBN 1-56238-587-9]. Clinical and Laboratory Standards Institute, 940 West Valley Road, Suite 1400, Wayne, Pa. 19087-1898 USA, 2006). Automated liquid handlers (Multidrop 384, Labsystems, Helsinki, Finland; Biomek 2000 and Multimek 96, Beckman Coulter, Fullerton Calif.) were used to conduct serial dilutions and make liquid transfers.
(§6) Wells of two standard 96-well microdilution plates (Falcon 3918; Becton Dickinson) were filled with 150 μL of […] using the Multidrop 384. These plates were used to prepare the drug “mother plates” that provided the serial drug dilutions for replicate “daughter plates”. The Biomek 2000 was used to transfer 150 μl of each stock solution from the wells of column 1 of a deep well plate to the corresponding wells in column 1 of the mother plate and to make eleven 2-fold serial dilutions in the mother plates. The wells of column 12 contained no drug and were the organism growth control wells. Each mother plate has the capacity to create a total of 12 daughter plates.
(§7) The daughter plates were loaded with 180 μL of one of the media described above using the Multidrop 384. The wells of the daughter plates ultimately contained 180 μL of MHB II, 10 μL of drug solution, and 10 μL of bacterial inoculum prepared in broth appropriate to the test organism (1.05×). The daughter plates were prepared on the Multimek 96 instrument, which transferred 10 μL of drug solution from each well of the mother plate to each corresponding well of each daughter plate in a single step.

Staphylococcus aureus [1] = experiment: MIC, broth microdilution (CLSI); type: cell-based
Description: as §1, §2, §3, §4, §5, §6, §7

[2] = test system: Staphylococcus epidermidis; experiment: MIC, broth microdilution (CLSI); type: cell-based
Description: (§8) The solvent for all of the compounds was deionized water (DIW), and all of the compounds dissolved in the solvent. The stock solutions were allowed to stand in DIW for one hour at room temperature prior to testing to allow time for auto-sterilization.
as §2, §3, §4, §5, §6
as §7, with “step. […]” for “step.”

Enterococcus faecalis [3] = experiment: MIC, broth microdilution (CLSI); type: cell-based
Description: as §8, §2, §3, §4, §5, §6
as §7, with “step. […]” for “step.”

Enterococci = experiment: MIC, broth microdilution, summary over Enterococci; type: cell-based; conditions: against Enterococci
Description: as §8
as §2, with “Staphylococcus aureus ATCC 29213 and Enterococcus faecalis ATCC 29212 were included as quality control isolates in the assay.” left out
as §5, with “Automated liquid handlers (Multidrop 384, Labsystems, Helsinki, Finland; Biomek 2000 and Multimek 96, Beckman Coulter, Fullerton Calif.) were used to conduct serial dilutions and make liquid transfers.” left out

Streptococcus pyogenes = experiment: MIC, broth microdilution (CLSI); type: cell-based
Description: as §8, §2, §3
For streptococci, lysed horse blood (Lot # H88621; Cleveland Scientific, Bath, Ohio) was added to the MHB II at a final concentration of 2%.
as §4, §5, §6
as §7, with “step. […]” for “step.”

staphylococci = experiment: MIC, broth microdilution, summary over staphylococci; type: cell-based; conditions: against staphylococci
Description: as §8
as §2, with “Staphylococcus aureus ATCC 29213 and Enterococcus faecalis ATCC 29212 were included as quality control isolates in the assay.” left out
as §5, with “Automated liquid handlers (Multidrop 384, Labsystems, Helsinki, Finland; Biomek 2000 and Multimek 96, Beckman Coulter, Fullerton Calif.) were used to conduct serial dilutions and make liquid transfers.” left out

Streptococcus pneumoniae = experiment: MIC, broth microdilution (CLSI); type: cell-based
Description: as §8, §2, §3
For streptococci, lysed horse blood (Lot # H88621; Cleveland Scientific, Bath, Ohio) was added to the MHB II at a final concentration of 2%. […]
as §5, §6, §7
Standardized inoculum of each organism was prepared following Clinical and Laboratory Standards Institute (Clinical and Laboratory Standards Institute^b. Performance Standards for Antimicrobial Susceptibility Testing; Sixteenth Informational Supplement. CLSI document M100-S16 [ISBN 1-56238-588-7]. Clinical and Laboratory Standards Institute, 940 West Valley Road, Suite 1400, Wayne, Pa. 19087-1898 USA, 2006) methods. The inoculum for each organism was dispensed into sterile reservoirs divided by length (Beckman Coulter), and the Biomek 2000 was used to inoculate the plates. […]

Enterococcus faecalis [4] = conditions: quality control range for Enterococcus faecalis ATCC 29212 (# 101); cited from earlier work
Staphylococcus aureus [5] = conditions: quality control range for Staphylococcus aureus ATCC 29213 (# 100); cited from earlier work
[6] = Streptococcus pyogenes Micromyx # 942, macrolide^R

## Empedopeptin
Enterococcus faecium; Enterococcus faecium Micromyx # 750, Van^S
  MIC: 8 µg/mL
Enterococcus faecium; Enterococcus faecium Micromyx # 752, Van A
  MIC: 16 µg/mL
Enterococcus faecium; Enterococcus faecium Micromyx # 1120, Van B
  MIC: 16 µg/mL
Enterococcus faecium; Enterococcus faecium Micromyx # 1721, DAP^R
  MIC: 32 µg/mL
Staphylococcus aureus [1]; Staphylococcus aureus Micromyx # 100, MSSA, CLSI QC strain (ATCC 29213)
  MIC: 4 µg/mL
Staphylococcus aureus [1]; Staphylococcus aureus Micromyx # 106, RA^R
  MIC: 0.5 µg/mL
Staphylococcus aureus [1]; Staphylococcus aureus Micromyx # 1002, MSSA, macrolide^R
  MIC: 4 µg/mL
Staphylococcus aureus [1]; Staphylococcus aureus Micromyx # 1004, MRSA, FA^R
  MIC: 8 µg/mL
Staphylococcus aureus [1]; Staphylococcus aureus Micromyx # 1016, FA^R
  MIC: 8 µg/mL
Staphylococcus aureus [1]; Staphylococcus aureus Micromyx # 1651, LZD^R clinical isolate
  MIC: 4 µg/mL
Staphylococcus aureus [1]; Staphylococcus aureus Micromyx # 1723, VISA
  MIC: 4 µg/mL
Staphylococcus aureus [1]; Staphylococcus aureus Micromyx # 1727, GM^R
  MIC: 8 µg/mL
Staphylococcus aureus [1]; Staphylococcus aureus Micromyx # 1730, Community-acquired MRSA
  MIC: 4 µg/mL
Staphylococcus aureus [1]; Staphylococcus aureus Micromyx # 1731, CHL^R
  MIC: 4 µg/mL
[2]; Staphylococcus epidermidis Micromyx # 108, MRSE
  MIC: 8 µg/mL
[2]; Staphylococcus epidermidis Micromyx # 835, MSSE
  MIC: 8 µg/mL
Enterococcus faecalis [3]; Enterococcus faecalis Micromyx # 101, VSE, CLSI QC strain (ATCC 29212)
  MIC: 4 µg/mL
Enterococcus faecalis [3]; Enterococcus faecalis Micromyx # 413, LZD^R from res. dev. or other
  MIC: 8 µg/mL
Enterococcus faecalis [3]; Enterococcus faecalis Micromyx # 486, Van A
  MIC: 8 µg/mL
Enterococcus faecalis [3]; Enterococcus faecalis Micromyx # 1088, Van B
  MIC: 16 µg/mL
Enterococci; all strains tested
  range of MIC values: 4 to 32 µg/mL
Enterococci; most strains
  MIC, most strains inhibited: 8 to 16 µg/mL
Streptococcus pyogenes; [6]
  MIC: ≦0.12 μg/mL
Streptococcus pyogenes; Streptococcus pyogenes Micromyx # 985, Susceptible
  MIC: ≦0.12 μg/mL
Streptococcus pyogenes; both S. pyogenes test strains (including the macrolide-resistant strain)
  MIC: ≤ 0.12 µg/mL
staphylococci; all strains tested
  MIC values in the range: 0.5 to 8 µg/mL
staphylococci; majority of strains
  MIC, majority of strains inhibited: 4 to 8 µg/mL
Streptococcus pneumoniae; Streptococcus pneumoniae Micromyx # 374, Wild type
  MIC: 1 µg/mL
Streptococcus pneumoniae; Streptococcus pneumoniae Micromyx # 375, parC, gyrB
  MIC: 2 µg/mL
Streptococcus pneumoniae; Streptococcus pneumoniae Micromyx # 376, parC, gyrA
  MIC: 2 µg/mL
Streptococcus pneumoniae; Streptococcus pneumoniae Micromyx # 379, parC, gyrA, gyrB
  MIC: 2 µg/mL
Streptococcus pneumoniae; Streptococcus pneumoniae Micromyx # 927, mef(A)
  MIC: <0.12 µg/mL
Streptococcus pneumoniae; Streptococcus pneumoniae Micromyx # 928, erm(B)
  MIC: 0.5 µg/mL
Streptococcus pneumoniae; all strains of S. pneumoniae
  MIC range: ≦0.12-2 μg/mL

## Cc1onc(-c2ccccc2)c1C(=O)N[C@@H]1C(=O)N2[C@@H]1SC(C)(C)[C@@H]2C(=O)O [Oxacillin, oxacillin]
Enterococcus faecium; Enterococcus faecium, Enterococcus faecium Micromyx # 750, Van^S, read-out: MIC
  MIC: 4 µg/mL (≈ 9.96 µM)
Enterococcus faecium; Enterococcus faecium, Enterococcus faecium Micromyx # 1721, DAP^R, read-out: MIC
  MIC: 32 µg/mL (≈ 79.7 µM)
Staphylococcus aureus [1]; Staphylococcus aureus, ATCC 29213 / MSSA, Staphylococcus aureus Micromyx # 100, MSSA, CLSI QC strain (ATCC 29213), read-out: MIC
  MIC: 0.25 µg/mL (≈ 0.623 µM)
Staphylococcus aureus [1]; Staphylococcus aureus, MRSA, Staphylococcus aureus Micromyx # 1004, MRSA, FA^R, read-out: MIC
  MIC: 16 µg/mL (≈ 39.9 µM)
Staphylococcus aureus [1]; Staphylococcus aureus, MRSA, Staphylococcus aureus Micromyx # 1730, Community-acquired MRSA, read-out: MIC
  MIC: 32 µg/mL (≈ 79.7 µM)
Staphylococcus aureus [1]; Staphylococcus aureus, MSSA, Staphylococcus aureus Micromyx # 1002, MSSA, macrolide^R, read-out: MIC
  MIC: 0.5 µg/mL (≈ 1.25 µM)
Staphylococcus aureus [1]; Staphylococcus aureus, Staphylococcus aureus Micromyx # 1016, FA^R, read-out: MIC
  MIC: 32 µg/mL (≈ 79.7 µM)
Staphylococcus aureus [1]; Staphylococcus aureus, Staphylococcus aureus Micromyx # 1727, GM^R, read-out: MIC
  MIC: 0.25 µg/mL (≈ 0.623 µM)
Staphylococcus aureus [1]; Staphylococcus aureus, Staphylococcus aureus Micromyx # 1731, CHL^R, read-out: MIC
  MIC: 0.25 µg/mL (≈ 0.623 µM)
Enterococcus faecalis [4]
  MIC, CLSI Recommended Range: 8 to 32 µg/mL
[2]; Staphylococcus epidermidis Micromyx # 108, MRSE, read-out: MIC
  MIC: 64 µg/mL (≈ 159 µM)
[2]; Staphylococcus epidermidis Micromyx # 835, MSSE, read-out: MIC
  MIC: ≤ 0.12 µg/mL
Enterococcus faecalis [3]; Enterococcus faecalis, ATCC29212, Enterococcus faecalis Micromyx # 101, VSE, CLSI QC strain (ATCC 29212), read-out: MIC
  MIC: 16 µg/mL (≈ 39.9 µM)
Enterococcus faecalis [3]; Enterococcus faecalis, Enterococcus faecalis Micromyx # 413, LZD^R from res. dev. or other, read-out: MIC
  MIC: 64 µg/mL (≈ 159 µM)
Enterococcus faecalis [3]; Enterococcus faecalis, Enterococcus faecalis Micromyx # 486, Van A, read-out: MIC
  MIC: 16 µg/mL (≈ 39.9 µM)
Enterococcus faecalis [3]; Enterococcus faecalis, Enterococcus faecalis Micromyx # 1088, Van B, read-out: MIC
  MIC: 16 µg/mL (≈ 39.9 µM)
Streptococcus pyogenes; [6]
  MIC: ≦0.12 μg/mL
Streptococcus pyogenes; Streptococcus pyogenes Micromyx # 985, Susceptible, read-out: MIC
  MIC: ≤ 0.12 µg/mL
Staphylococcus aureus [5]
  MIC, CLSI Recommended Range: 0.12 to 0.5 µg/mL
Streptococcus pneumoniae; Streptococcus pneumoniae, Streptococcus pneumoniae Micromyx # 374, Wild type, read-out: MIC
  MIC: 16 µg/mL (≈ 39.9 µM)
Streptococcus pneumoniae; Streptococcus pneumoniae, Streptococcus pneumoniae Micromyx # 375, parC, gyrB, read-out: MIC
  MIC: ≤ 0.12 µg/mL
Streptococcus pneumoniae; Streptococcus pneumoniae, Streptococcus pneumoniae Micromyx # 376, parC, gyrA, read-out: MIC
  MIC: ≤ 0.12 µg/mL
Streptococcus pneumoniae; Streptococcus pneumoniae, Streptococcus pneumoniae Micromyx # 379, parC, gyrA, gyrB, read-out: MIC
  MIC: ≤ 0.12 µg/mL
Streptococcus pneumoniae; Streptococcus pneumoniae, Streptococcus pneumoniae Micromyx # 927, mef(A), read-out: MIC
  MIC: 16 µg/mL (≈ 39.9 µM)
Streptococcus pneumoniae; Streptococcus pneumoniae, Streptococcus pneumoniae Micromyx # 928, erm(B), read-out: MIC
  MIC: 16 µg/mL (≈ 39.9 µM)
